Ten molecules from US20240059691A1 (KALVISTA PHARMACEUTICALS LIMITED, priority 2020, published 2024) can be followed below.

SMILES strings stand for the structures.

Experiment [1] addresses KLK1 (Homo sapiens (Human), UniProt P06870). In words: Determination of related protease inhibition: KLK1 (fluorogenic substrate at Km). It counts as biochemical. As to conditions: 25° C. As for the experimental part: Determination of Related Protease Inhibition
In vitro inhibition of related proteases was determined using an ([…] assay based on standard literature methods (see e.g. Shori et al., Biochem. Pharmacol., 1992, 43, 1209; Bouckaert et al., European Journal of Medicinal Chemistry 110 (2016) 181). Human serine protease enzymes Plasma Kallikrein, KLK1, FXa, Plasmin, Thrombin and Trypsin were assayed for enzymatic activity using an appropriate fluorogenic substrate at Km concentration, FXIa at fixed substrate concentration of 100 μM, and various concentrations of the test compound. Protease activity was measured by monitoring the accumulation of liberated fluorescence from the substrate over […]. The linear rate of fluorescence increase per minute was expressed as percentage (%) activity. IC50 values were calculated as the concentration of inhibitor giving 50% inhibition of the uninhibited enzyme activity (100%).

Experiment [2] addresses Human Factor XIIa (Homo sapiens (Human), UniProt P00748). In words: Determination of FXIIa inhibition (fluorogenic substrate H-DPro-Phe-Arg-AFC, IC50 assay). As to conditions: substrate H-DPro-Phe-Arg-AFC at Km, 25° C.; class scale A-G. It is filed as biochemical. The essentials: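 Human FXIIa incubated at 25° C with fluorogenic substrate H-DPro-Phe-Arg-AFC at its Km concentration and varying compound concentrations. Fluorescence release monitored over 5 min at 25° C; linear rate expressed as % of uninhibited activity to derive IC50.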

Chain of Human Factor XIIa (P00748 373-615): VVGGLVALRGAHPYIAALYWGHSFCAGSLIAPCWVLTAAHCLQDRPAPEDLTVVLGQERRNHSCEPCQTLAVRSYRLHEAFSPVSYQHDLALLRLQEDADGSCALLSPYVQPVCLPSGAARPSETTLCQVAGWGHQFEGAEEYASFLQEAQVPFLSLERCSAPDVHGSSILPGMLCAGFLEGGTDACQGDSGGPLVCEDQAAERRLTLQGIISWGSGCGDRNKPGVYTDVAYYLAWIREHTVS
Chain of KLK1 (P06870 25-262): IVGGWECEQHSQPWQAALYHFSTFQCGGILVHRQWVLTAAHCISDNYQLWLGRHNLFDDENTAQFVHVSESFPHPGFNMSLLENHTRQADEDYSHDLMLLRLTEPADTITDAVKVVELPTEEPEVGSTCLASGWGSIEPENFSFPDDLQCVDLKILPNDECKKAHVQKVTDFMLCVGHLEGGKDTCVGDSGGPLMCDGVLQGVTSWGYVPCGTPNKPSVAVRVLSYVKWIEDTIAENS

Turning to `Cc1cc(N2CCn3c(nnc3C(F)(F)F)C2)cnc1CNc1cccc2c(N)nccc12` [Example 9005, N5-((3-Methyl-5-(3-(trifluoromethyl)-5,6-dihydro-[1,2,4]triazolo[4,3-a]pyrazin-7(8H)-yl)pyridin-2-yl)methyl)isoquinoline-1,5-diamine], the IC50 in experiment [1] was more than 4 µM; in experiment [2], 0.01 to 0.1 µM.

As for `CC(C)c1cc(N2CCn3c(nnc3C(F)(F)F)C2)ncc1CNc1cccc2c(N)nccc12` [Example 1308, N5-((4-isopropyl-6-(3-(trifluoromethyl)-5,6-dihydro-[1,2,4]triazolo[4,3-a]pyrazin-7(8H)-yl)pyridin-3-yl)methyl)isoquinoline-1,5-diamine], the IC50 fell in the range of 3 to 10 µM in experiment [1] and 1 to 3 µM in experiment [2].

For `CCc1cc(N2CCn3c(nnc3C(F)(F)F)C2)ncc1CNc1cccc2c(N)nccc12` [Example 1309, N5-((4-ethyl-6-(3-(trifluoromethyl)-5,6-dihydro-[1,2,4]triazolo[4,3-a]pyrazin-7(8H)-yl)pyridin-3-yl)methyl)isoquinoline-1,5-diamine], the IC50 was more than 4 µM in experiment [1] and 0.01 to 0.1 µM in experiment [2].

Turning to `Nc1nccc2c(NCc3cnc(N4CCn5c(nnc5C(F)(F)F)C4)cc3C3CC3)cccc12` [Example 1307, N5-((4-cyclopropyl-6-(3-(trifluoromethyl)-5,6-dihydro-[1,2,4]triazolo[4,3-a]pyrazin-7(8H)-yl)pyridin-3-yl)methyl)isoquinoline-1,5-diamine], the IC50 is 3 to 10 µM in experiment [1] and 0.3 to 1 µM in experiment [2].

With `Cc1cc(N2CCn3c(nnc3C(F)(F)F)C2C)ncc1CNc1cccc2c(N)nccc12` (single isomer, unassigned) [Example 1304, (R*)-N5-((4-methyl-6-(8-methyl-3-(trifluoromethyl)-5,6-dihydro-[1,2,4]triazolo[4,3-a]pyrazin-7(8H)-yl)pyridin-3-yl)methyl)isoquinoline-1,5-diamine], the half-inhibitory concentration (IC50) in experiment [1] and in experiment [2] was 3 to 10 µM each time.

In experiment [1], `Nc1nccc2c(NCc3cnc(N4CCn5c(nnc5C(F)(F)F)C4)c(C(F)(F)F)c3)cccc12` [Example 1306, N5-((5-(trifluoromethyl)-6-(3-(trifluoromethyl)-5,6-dihydro-[1,2,4]triazolo[4,3-a]pyrazin-7(8H)-yl)pyridin-3-yl)methyl)isoquinoline-1,5-diamine] registered a 50% inhibitory concentration (IC50) of 1 to 3 µM.

With `Cc1cc(N2CCn3c(nnc3C(F)(F)F)C2)ncc1CNc1ccnc2[nH]c(Cl)cc12` [Example 1313, 2-Chloro-N-((4-methyl-6-(3-(trifluoromethyl)-5,6-dihydro-[1,2,4]triazolo[4,3-a]pyrazin-7(8H)-yl)pyridin-3-yl)methyl)-1H-pyrrolo[2,3-b]pyridin-4-amine], the results for the IC50 in experiment [1] and in experiment [2] were more than 4 µM and 0.1 to 0.3 µM, respectively.

Take `CC(C)N1C[C@H]2C[C@@H]1CN2Cc1cc(CNc2cccc3c(N)nccc23)ccn1` [Example 4295, 5-N-[(2-{[(1R,4R)-5-isopropyl-2,5-diazabicyclo[2.2.1]heptan-2-yl]methyl}pyridin-4-yl)methyl]isoquinoline-1,5-diamine]: the IC50 in experiment [1] and in experiment [2] was 10 to 40 µM in each case.

Consider `Cc1nnc2n1CCN(c1ccc(CNc3cccc4c(N)nccc34)cn1)CC2` [Example 1310, N5-((6-(3-methyl-5,6,8,9-tetrahydro-7H-[1,2,4]triazolo[4,3-d][1,4]diazepin-7-yl)pyridin-3-yl)methyl)isoquinoline-1,5-diamine], for which the IC50 in experiment [1] and in experiment [2] was 1 to 3 µM in each case.

`Nc1nccc2c(NCc3cnc(N4CCn5c(nnc5C(F)(F)F)C4)cn3)cccc12` [Example 9002, N5-((5-(3-(trifluoromethyl)-5,6-dihydro-[1,2,4]triazolo[4,3-a]pyrazin-7(8H)-yl)pyrazin-2-yl)methyl)isoquinoline-1,5-diamine]: the results for the IC50 in experiment [1] and in experiment [2] were 3 to 10 µM and 0.3 to 1 µM, respectively.
